From US20250222044A1, “LIMOSILACTOBACILLUS REUTERI GOLDGUT-LR99 AND APPLICATION THEREOF” (priority 2024, published 2025)
Where a SMILES comes first, the peptide text is derived from it.

Each compound was assayed on Limosilactobacillus reuteri GOLDGUT-LR99 (assay: Carbon source utilization and oxidation experiment (AN Biolog micro-pore plate)). Conditions: substrate utilization by the strain.
Assay type: cell-based
Method: The AN Biolog micro-pore plate was used for measuring the utilization and oxidation conditions of different carbon sources of Limosilactobacillus reuteri GOLDGUT-LR99, the AN microplate used nutrients and biochemical reagents, and the method included the following steps: 1 mL of Limosilactobacillus reuteri GOLDGUT-LR99 bacterial liquid of the strain to be detected at the end of logarithmic growth was pipetted and centrifuged, then the supernatant was removed, the cells was washed three times with the seed liquid and suspended with 1 mL of the seed liquid, 50 μL of the suspension was taken and diluted in 10 mL of the seed liquid, the diluent was subpacked in a Biolog plate (100 μL/pore) after mixing uniformly, and the Biolog plate with the diluent was placed in 37° C. for anaerobic culture for 24 hours. After the culture was finished, OD590 and OD750 were detected by using microplate reader, the numerical values were recorded, and the utilization conditions of carbohydrate, organic acid and other substances of the Limosilactobacillus reuteri GOLDGUT-LR99 were calculated, wherein the calculation method was as follows: Y=OD590−OD750;

| Compound | utilization effect (in words) |
| --- | --- |
| OCC1OC(OC2OC(CO)C(O)C(O)C2O)C(O)C(O)C1O [L-Trehalose] | better utilization effect |
| CC(O)C(=O)O (racemic) [D,L-Lactic acid] | effectively utilize |
| O=C(CO)[C@@H](O[C@H]1O[C@H](CO)[C@@H](O)[C@H](O)[C@H]1O)[C@H](O)[C@H](O)CO [turanose] | better utilization effect |
| O=C(O)[C@@H](O)[C@@H](O)[C@H](O)[C@@H](O)C(=O)O [D-Glucarate] | effectively utilize |

Same assay, conditions: substrate utilization by the strain, 37° C. anaerobic culture for 24 hours

| Compound | Utilization (Y=OD590−OD750) |
| --- | --- |
| L-Asparagine acid | + (when 0.1 > Y > 0.05, it is shown that the strain was able to better utilize this substance, marked as +) |
| α-Succinic acid | − (when Y < 0.05, it is shown that the strain was not able to utilize this substance, marked as −) |
| Hexanediol | − (when Y < 0.05, it is shown that the strain was not able to utilize this substance, marked as −) |
| O=P(O)(O)OCC(O)CO (racemic) [D,L-α-Glycerophosphate] | − (when Y < 0.05, it is shown that the strain was not able to utilize this substance, marked as −) |
| C[C@@H](O)[C@H](N)C(=O)O [L-Threonine] | − (when Y < 0.05, it is shown that the strain was not able to utilize this substance, marked as −) |
| OCC1OC(OC2OC(CO)C(O)C(O)C2O)C(O)C(O)C1O [L-Trehalose] | ++ (when Y > 0.1, it is shown that the strain was able to effectively utilize this substance, marked as++) |
| OC[C@H]1O[C@H](OC[C@H]2OC(O)(CO)[C@@H](O)[C@@H]2O)[C@H](O)[C@@H](O)[C@@H]1O (some centres unmarked) [Palatinose] | ++ (when Y > 0.1, it is shown that the strain was able to effectively utilize this substance, marked as++) |
| OC[C@H]1O[C@@H]2O[C@H]3[C@H](O)[C@@H](O)[C@@H](O[C@H]4[C@H](O)[C@@H](O)[C@@H](O[C@H]5[C@H](O)[C@@H](O)[C@@H](O[C@H]6[C@H](O)[C@@H](O)[C@@H](O[C@H]7[C@H](O)[C@@H](O)[C@@H](O[C@H]1[C@H](O)[C@H]2O)O[C@@H]7CO)O[C@@H]6CO)O[C@@H]5CO)O[C@@H]4CO)O[C@@H]3CO [α-Cyclodextrin] | ++ (when Y > 0.1, it is shown that the strain was able to effectively utilize this substance, marked as++) |
| N[C@@H](CO)C(=O)O [L-Serine] | − (when Y < 0.05, it is shown that the strain was not able to utilize this substance, marked as −) |
| CC(O)C(=O)O (racemic) [D,L-Lactic acid] | ++ (when Y > 0.1, it is shown that the strain was able to effectively utilize this substance, marked as++) |
| OC[C@H]1O[C@@H](O[C@H]2[C@H](O)[C@@H](O)[C@H](O)O[C@@H]2CO)[C@H](O)[C@@H](O)[C@@H]1O [D-Cellobiose] | ++ (when Y > 0.1, it is shown that the strain was able to effectively utilize this substance, marked as++) |
| CC(O)CC(=O)O (stereo not drawn) [β-Hydroxybutyric acid] | − (when Y < 0.05, it is shown that the strain was not able to utilize this substance, marked as −) |
| CO[C@@H]1O[C@H](CO)[C@@H](O)[C@H](O)[C@H]1O [β-Methyl-D-glucoside] | − (when Y < 0.05, it is shown that the strain was not able to utilize this substance, marked as −) |
| CC(=O)N[C@H]1[C@@H](O)[C@H](O)[C@@H](CO)O[C@H]1O [N-Acetyl-β-D-mannosamine] | − (when Y < 0.05, it is shown that the strain was not able to utilize this substance, marked as −) |
| OCC(O)CO [Glycerol] | − (when Y < 0.05, it is shown that the strain was not able to utilize this substance, marked as −) |
| CO[C@H]1O[C@H](CO)[C@@H](O)[C@H](O)[C@H]1O [α-Methyl-D-glucoside] | − (when Y < 0.05, it is shown that the strain was not able to utilize this substance, marked as −) |
| O=C(O)[C@H]1OC(O)[C@H](O)[C@@H](O)[C@@H]1O (stereo partly drawn) [D-Glucoronate] | ++ (when Y > 0.1, it is shown that the strain was able to effectively utilize this substance, marked as++) |
| CC(=O)N[C@H]1C(O)O[C@H](CO)[C@@H](O)[C@@H]1O (stereo partly drawn) [N-Acetyl-D-glucosamine] | − (when Y < 0.05, it is shown that the strain was not able to utilize this substance, marked as −) |
| O=c1ccn([C@@H]2O[C@H](COP(=O)(O)O)[C@@H](O)[C@H]2O)c(=O)[nH]1 [Uridine-5′-monophosphate] | − (when Y < 0.05, it is shown that the strain was not able to utilize this substance, marked as −) |
| NCC(=O)N1CCC[C@H]1C(=O)O [Glycylprolline] (H-Gly-Pro-OH) | − (when Y < 0.05, it is shown that the strain was not able to utilize this substance, marked as −) |
| NCC(=O)N[C@@H](CCC(N)=O)C(=O)O [Glycyl-L-glutamine] (H-Gly-Gln-OH) | − (when Y < 0.05, it is shown that the strain was not able to utilize this substance, marked as −) |
| OC[C@H]1O[C@H](O[C@H]2O[C@H](CO)[C@@H](O)[C@H](O)[C@H]2O)[C@H](O)[C@@H](O)[C@@H]1O [D-Trehalose] | − (when Y < 0.05, it is shown that the strain was not able to utilize this substance, marked as −) |

| Compound | Utilization (Y=OD590−OD750) |
| --- | --- |
| CO[C@@H]1O[C@H](CO)[C@@H](O)[C@H](O)[C@H]1O [β-Methyl-D-galactoside] | − (when Y < 0.05, it is shown that the strain was not able to utilize this substance, marked as −) |
| OC[C@@H](O)C(O)[C@H](O)CO [D-Arabinitol] | − (when Y < 0.05, it is shown that the strain was not able to utilize this substance, marked as −) |
| CC(=O)C(=O)O [Pyruvic acid] | + (when 0.1 > Y > 0.05, it is shown that the strain was able to better utilize this substance, marked as +) |
| Cc1cn([C@H]2C[C@H](O)[C@@H](CO)O2)c(=O)[nH]c1=O [Thymidine] | − (when Y < 0.05, it is shown that the strain was not able to utilize this substance, marked as −) |
| O=C[C@H](O)[C@@H](O)[C@H](O)[C@H](O)COP(=O)(O)O [Glucose-6-phosphate] | ++ (when Y > 0.1, it is shown that the strain was able to effectively utilize this substance, marked as++) |
| O=C(O)[C@@H](O)[C@@H](O)[C@H](O)[C@@H](O)C(=O)O [D-Glucarate] | ++ (when Y > 0.1, it is shown that the strain was able to effectively utilize this substance, marked as++) |
| O=CO [Formic acid] | − (when Y < 0.05, it is shown that the strain was not able to utilize this substance, marked as −) |
| OC[C@H]1O[C@@H](n2cnc3c(O)ncnc32)[C@H](O)[C@@H]1O [Inosine] | − (when Y < 0.05, it is shown that the strain was not able to utilize this substance, marked as −) |
| COC1OC(CO)C(O)C(O)C1O [α-Methyl-D-galactoside] | − (when Y < 0.05, it is shown that the strain was not able to utilize this substance, marked as −) |
| COC(C)=O [Methyl acetate] | ++ (when Y > 0.1, it is shown that the strain was able to effectively utilize this substance, marked as++) |
| CSCC[C@H](N)C(=O)O [L-Methionine] | − (when Y < 0.05, it is shown that the strain was not able to utilize this substance, marked as −) |
| L-Alanyl-L-M-glutamate | − (when Y < 0.05, it is shown that the strain was not able to utilize this substance, marked as −) |
| O=C(O)C[C@H](O)C(=O)O [L-Malic acid] | − (when Y < 0.05, it is shown that the strain was not able to utilize this substance, marked as −) |
| OC[C@H]1O[C@H](O[C@H]2[C@H](O)[C@@H](O)[C@H](O)O[C@@H]2CO)[C@H](O)[C@@H](O)[C@@H]1O [Maltose] | − (when Y < 0.05, it is shown that the strain was not able to utilize this substance, marked as −) |
| O=C(O)C(O)C(O)C(=O)O (centres unmarked) [m-Tartaric acid] | + (when 0.1 > Y > 0.05, it is shown that the strain was able to better utilize this substance, marked as +) |
| OC[C@@H](O)[C@@H](O)[C@H](O)[C@H](O)CO [D-Mannitol] | + (when 0.1 > Y > 0.05, it is shown that the strain was able to better utilize this substance, marked as +) |
| L-Valine + L-M-Aspartamid acid | − (when Y < 0.05, it is shown that the strain was not able to utilize this substance, marked as −) |
| OC[C@H]1O[C@@](CO)(O[C@H]2O[C@H](CO)[C@@H](O)[C@H](O)[C@H]2O)[C@@H](O)[C@@H]1O [Sucrose] | − (when Y < 0.05, it is shown that the strain was not able to utilize this substance, marked as −) |
| CCC(O)C(=O)O (stereo not drawn) [α-Hydroxybutyric acid] | − (when Y < 0.05, it is shown that the strain was not able to utilize this substance, marked as −) |
| NC(=O)CCC(=O)O [Succinamide acid] | + (when 0.1 > Y > 0.05, it is shown that the strain was able to better utilize this substance, marked as +) |
| D-Aminoglucuronate | ++ (when Y > 0.1, it is shown that the strain was able to effectively utilize this substance, marked as++) |
